“And” between values parts separate entries of the source, which are not always exact repeats. Equal entries are not always repeated. Where two headings read alike, the source gives them in different places. Values belong to the compound of their own block, whether it stands above or below them.
Legend:
[1] = Clinical plasma pharmacokinetics in patients, plasma concentration limit calculation; assay type: in vivo; conditions: average plasma concentration calculated from AUC0-24h in patients
Procedure: To select for clinically relevant doses, the clinically attainable drug concentration measured in the blood plasma of patients after treatment is used to calculate the concentration limit for in vitro experiments. […] The average drug concentration is calculated from the AUC0–24h and is implemented as the plasma concentration limit (PCL) which drug dose selection must remain below for in vitro experiments. If a drug is FDA approved, the AUC0–24h selected is the one corresponding to the recommended dose in clinical practice. If a drug is in clinical trials, the AUC0–24h selected is the one corresponding to the maximum tolerated dose in early stage clinical trials. Note, experiments were conducted with the most current PCL calculated from the AUC0–24h information available at the start of experiments (December 2017), see Table S4.

[2] = 0-24h, oral, cited from earlier work
[3] = test system: SW620 tumors; test: Subcutaneous xenograft tumor growth; assay type: in vivo, Swiss nu/nu mice
Procedure: All procedures including animal use were performed in accordance with the Institutional Ethical Committee of Animal Care in Geneva and the Swiss Cantonal Veterinary Office (Authorization number GE‐136‐19). Briefly, female and male Swiss nu/nu mice aged 6–8 weeks were obtained from Charles River (Écully, France). For subcutaneous xenografts mice were inoculated in the left flank with 5x10^6 DLD1 or SW620 cells suspended in 100 µL of cell culture medium, supplemented with 1% FBS. Treatment was initiated when palpable tumors had formed (approximately 30 mm^3) on day 4 for DLD1 and day 5 for the SW620 model.
Treatment was initiated once tumor growth was confirmed with bioluminescence measurements. Drugs were administered through oral gavage based on average body weight of the males (100 µL/mouse) and females (80 µL/mouse) at various concentrations, see Tables S10 and S11.
Solution A: step (1) 30% PEG 400 + 5% propylene glycol + 0.5% Tween 80 and (2) 64.5% sterile H2O. Solution B: step (1) 10% DMSO, (2) 30% PEG 300 + 5% Tween 80 and (3) 55% sterile H2O. Vemurafenib was prepared 2x concentrated (half or three/sixth of total solution), and the remaining drugs were prepared 6x concentrated (one/sixth of total solution), after which drugs were diluted to prepare 1x drug concentrations for the ODC or single drugs using the other drugs or complete solvent solutions without drugs for lower concentrations. FOLFOX was administered as 6 mg/kg oxaliplatin two hours before administration of 90 mg/kg leucovorin and 50 mg/kg (DLD1) or 25 mg/kg (SW620) 5‐fluorouracil at day 1 and a repeat of 5‐fluorouracil dosing on day 2.
The Bliss independence model can be used to evaluate the drug interaction potential of a drug mixture. The model is based on the principle that each drug has an independent drug mechanism of action, but all contribute to a common result (e.g., cell death or tumor volume inhibition). The model is based on the probability theory and requires the drug activity of each drug at the selected dose to predict the inhibition rate (IR) at additive doses. For in vivo tumor volume results, we predicted the IR based on the fraction of tumor volume remaining after single‐drug treatment of each of the drugs vs 100% CTRL (F1,2,3,4), using the following formula: IR = […].

[4] = Pharmacokinetics, dried blood spot LC-MS/MS, mice with SW620 tumors; assay type: in vivo; conditions: for Tmax / AUC(0-t) / Cmax: Swiss Nu/nu, mouse, whole blood (dried blood spot), po, 10 mg/kg, regorafenib 30, vemurafenib 75, GDC-0994 10 mg/kg; for AUC(0-t) / Cmax: whole blood, mean ± SD; for AUC(0-t): oral, read-out: AUC0-24h
Procedure: The pharmacokinetic (PK) study was performed using the dried blood spot method. Mice were treated with CTRL, ODCs, and corresponding monotherapies as described above. To determine the disposition in blood in the first 24h, blood samples (5 µL/mouse) were collected from the tail vein (n = 4 mice) at 2h, 4h, 8h, and 24h time points and transferred onto paper (a filter paper 903 protein saver card from Whatman (MA, USA)). A disk with the entire spot was punched from the paper card and transferred to the HPLC vial tube. Hundred µL of MeOH containing a mix of internal standards was added, and the tube was vortex‐mixed for about 1 min before injecting 10 µL into the LC‐MS/MS system. The LC‐MS/MS system consisted of an API 4,000 triple quadrupole mass spectrometer (AB sciex, Concord, ON, Canada) controlled by analyst 1.6.1 software. The mass spectrometer was operated in the multiple reaction monitoring (MRM) mode with positive electrospray ionization. The instrument was coupled with an Agilent series 1100 (Waldbronn, Germany) LC system. Chromatography was performed on a Phenomenex Kinetex C18 analytical column (50 mm x 2.1 mm, 2.6 um; Torrance, CA, USA). The flow rate was 0.5 mL/min using gradient elution conditions. The method was fully validated before application to this pharmacokinetic study.

[5] = Serum and intratumor drug concentration at experimental endpoint, SW620 model; assay type: in vivo, mice; conditions: for concentration at 1 h / Kp at 1 h: Swiss Nu/nu, mouse, oral; for concentration at 1 h: 1h post-treatment at endpoint (day 19); for Kp at 1 h: tumor vs serum, read-out: ratio tumor vs serum; for Kp at 1 h / ratio ODC vs single drug: SW620 model
Procedure: At the experimental endpoint, plasma and tumors were collected 1h post‐treatment and part of the tumor tissue was used to determine the intratumor drug concentrations. Plasma and tumor samples were analyzed using the same LC‐MS/MS method used for drug determination in DBS. Before analysis, tumor tissues were homogenized in a 1 mL mixture of water/acetonitrile (30/70). Hundred uL of homogenates were transferred into new tubes and 50 µL of acetonitrile, as well as 50 µL of a mix of internal standards in MeOH were added. Tubes were vortexed and centrifuged for 10 min at 9,000 rpm. The supernatant (100 µL) was evaporated under nitrogen and reconstituted in 100 µL of acetonitrile with 0.1% formic acid/water with 0.1% formic acid (30/70). 10 µL was then injected into the LC‐MS/MS system. Plasma samples were spotted onto the same paper used for whole blood analysis and were extracted and analyzed using the same methods as used for DBS.

[6] = GDC-0994 10 mg/kg, Exp 6, Day 20
[7] = GDC-0994 10 mg/kg, Exp 8, Day 19
[8] = GDC-0994 20 mg/kg, Exp 4, Day 22
[9] = given as part of SW620-specific ODC

PCL (plasma concentration limit) [1]: 0.43 µM and 0.4 µM
Structure (SMILES): CC1(COc2ccc3c(c2)ncn3-c2ccc3cccc(N4CCC(N)CC4)c3n2)COC1 [crenolanib]
AUC ([2]; 100 mg/kg twice daily): 3200 ng·h/mL
AUC ([2]; 200 mg/kg once daily): 4610 ng·h/mL

PCL (plasma concentration limit) [1]: 2.02 µM and 2.0 µM
Tmax [4, 9]: 2 h
AUC(0-t) [4, 9]: 45000 ± 9090 ng·h/mL
Cmax [4, 9]: 6610 ± 1110 ng/mL
Tmax ([4]; mono): 2 h
AUC(0-t) ([4]; mono): 31600 ± 4740 ng·h/mL
Cmax ([4]; mono): 6090 ± 1930 ng/mL
increase of AUC as part of the ODC vs single-drug treatment ([4]; mice bearing SW620 tumors, AUC0-24h): 1.4 x
concentration at 1 h ([5]; serum, 10 mg/kg, as part of ODC, regorafenib 30, selumetinib 0.2, vemurafenib 75, GDC-0994 10 mg/kg, read-out: concentration serum): 19400 ± 9390 ng/mL
concentration at 1 h ([5]; serum, 10 mg/kg, single drug, regorafenib 30, selumetinib 0.2, vemurafenib 75, GDC-0994 10 mg/kg, read-out: concentration serum): 15900 ± 9070 ng/mL
concentration at 1 h ([5]; tumor (SW620), as part of ODC, SW620 tumor, doses as E164, read-out: concentration tumor): 5560 ± 3000 ng/g
concentration at 1 h ([5]; tumor (SW620), single drug, SW620 tumor, doses as E164, read-out: concentration tumor): 12700 ± 2870 ng/g
Kp at 1 h ([5]; as part of ODC): 0.29
Kp at 1 h ([5]; single drug): 0.8
ratio ODC vs single drug ([5]; serum): 1.22
ratio ODC vs single drug ([5]; tumor): 0.44
Structure (SMILES): Cn1nccc1Nc1nccc(-c2ccn([C@H](CO)c3ccc(Cl)c(F)c3)c(=O)c2)n1 [GDC-0994, (S)-1-(1-(4-Chloro-3-fluorophenyl)-2-hydroxyethyl)-4-(2-((1-methyl-1H-pyrazol-5-yl)amino)pyrimidin-4-yl)pyridin-2(1H)-one]
% CTRL (tumor volume) [3, 6]: 56 33 15 % CTRL
Volume [3, 6]: 290 170 76 mm^3
% CTRL (tumor volume) [3, 7]: 56 18 7 % CTRL
Volume [3, 7]: 354 114 46 mm^3
% CTRL (tumor volume) [3, 8]: 62 31 22 % CTRL
Volume [3, 8]: 301 148 105 mm^3

PCL (plasma concentration limit) [1]: 8.31 µM and 8.3 µM
Structure (SMILES): Clc1ccc(Nc2nnc(Cc3ccncc3)c3ccccc23)cc1 [vatalanib]
AUC ([2]; 1,000 mg/kg once daily): 52900 ng·h/mL
AUC ([2]; 1,200 mg/kg once daily): 69200 ng·h/mL

PCL (plasma concentration limit) [1]: 0.19 µM and 0.2 µM
Structure (SMILES): O=C(CCCCCCC(=O)Nc1ccccc1)NO [vorinostat]
AUC ([2]; 200 mg/kg twice daily): 4.61 µM·h

Reference: article PMC7607171, “Optimized low‐dose combinatorial drug treatment boosts selectivity and efficacy of colorectal carcinoma treatment” (Molecular Oncology, 2020)
